The record followed here is EP3858342A1, “ACYLHYDRAZONES FOR THE TREATMENT OF NEUROLOGICAL DISEASES” (Consejo Superior de Investigaciones Científicas (CSIC), priority 2018, dated 2020).

The structures appear in SMILES notation. Entries after “also recorded” stand apart in the source; their conditions may differ. Like-named read-outs stand apart in the source and are kept apart here.

The target of one assay is T1, dNCS-1 (Drosophila melanogaster, UniProt Q9VWX8).
T1 sequence (Q9VWX8 1-187): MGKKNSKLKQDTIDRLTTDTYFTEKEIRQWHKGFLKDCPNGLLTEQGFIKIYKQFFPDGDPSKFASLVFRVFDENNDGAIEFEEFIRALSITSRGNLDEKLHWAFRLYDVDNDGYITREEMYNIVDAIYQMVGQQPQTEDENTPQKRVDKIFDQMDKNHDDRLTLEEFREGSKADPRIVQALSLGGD
Nature of the assay: Affinity for dNCS-1 by fluorescence spectroscopy. The class given is binding. The settings on record: for affinity in the fluorescence technique: additional fluorescence studies, result in words. The text has this: The protein complex formed by NCS-1 and Ric8 regulates the number of synapses and neurotransmitter release probability, so it is considered a good therapeutic target for the treatment of diseases in which the synapse is impaired. Based on fluorescence spectroscopy studies, the affinity of compounds for dNCS-1 (neuronal calcium sensor of Drosophila) has been proven. Neuronal calcium sensor NCS-1 is a protein the sequence of which is conserved from yeasts to humans.
The affinity of the compounds for dNCS-1 was measured by means of the fluorescence spectroscopy technique. The emission intensity of the complex is analyzed, where the signal is monitored at increasing concentrations of ligand (1:0 to 1:30 equivalents), keeping the protein concentration […], 30.8 µM, 1 eq.) constant. The affinity constant is thereby obtained through the apparent disassociation constant. […] The experiments are performed at 5°C with dNCS-1 in 50 mM Tris buffer, pH 7.9, 125 mM NaCl, 0.5 mM CaCl2 with 5% DMSO in a total volume of 300 µL. The experiment is performed at the excitation wavelength of 295 nm and at the emission wavelength of 345 nm (maximum emission) depending on the compound in a Jobin Yvon Floromax4 spectrofluorometer equipped with a Peltier Thermostat; the obtained values are the result of the normalized average of the three repetitions for each measurement. […] The affinity constants found for the tested compounds are as follows: […]

In the next assay the target is T2, NCS-1/Ric8a interaction (Homo sapiens, UniProt P62166).
T2 construct: expressed in transfected cells; host or cells: HEK293
T2 sequence (P62166 2-190 limits assumed): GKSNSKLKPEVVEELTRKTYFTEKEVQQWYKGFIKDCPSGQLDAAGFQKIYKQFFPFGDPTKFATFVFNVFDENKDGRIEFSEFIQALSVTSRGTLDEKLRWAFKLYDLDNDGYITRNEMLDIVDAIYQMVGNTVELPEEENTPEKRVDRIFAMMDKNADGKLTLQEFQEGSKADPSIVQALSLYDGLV
T2 sequence (Q9NPQ8 whole entry partner): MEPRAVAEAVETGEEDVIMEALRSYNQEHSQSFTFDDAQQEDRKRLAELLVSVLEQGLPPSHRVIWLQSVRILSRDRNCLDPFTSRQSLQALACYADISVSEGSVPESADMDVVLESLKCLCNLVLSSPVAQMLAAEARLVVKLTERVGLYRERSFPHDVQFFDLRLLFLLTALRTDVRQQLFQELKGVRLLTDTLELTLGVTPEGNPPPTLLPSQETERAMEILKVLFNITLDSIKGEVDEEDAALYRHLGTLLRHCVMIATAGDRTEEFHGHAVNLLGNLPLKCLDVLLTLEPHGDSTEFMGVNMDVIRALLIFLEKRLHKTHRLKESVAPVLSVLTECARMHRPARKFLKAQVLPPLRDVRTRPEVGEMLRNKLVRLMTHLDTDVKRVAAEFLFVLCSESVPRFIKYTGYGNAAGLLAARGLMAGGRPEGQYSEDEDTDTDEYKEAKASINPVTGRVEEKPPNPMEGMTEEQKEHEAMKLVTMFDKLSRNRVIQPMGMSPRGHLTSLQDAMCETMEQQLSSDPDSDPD
The assay can be described thus: Co-immunoprecipitation assay of NCS-1/Ric8a interaction in transfected HEK293 cells. The class given is cell-based. The settings on record: for NCS-1/Ric8a interaction: HEK293 cells transfected with human Ric8a (V5 tag) and NCS1, IP with anti-NCS1, Western blot with anti-V5, DMSO lane = baseline; for modulatory activity: stated as the reason for modelling the compounds in Drosophila Frq2, underlying test not specified. On the procedure: To identify compounds useful as modulators of the protein complex formed by NCS-1 and Ric8 (specifically as compounds useful for promoting NCS-1/Ric8a interaction), the experiment shown in Figure 1 was carried out. […] The DMSO lane represents baseline levels of NCS1/Ric8a interaction. IP was performed with anti-NCS1 antibodies, followed by the immunodetection of Ric8a in Western blot with the anti-V5 antibody.
(§1) • Figure 1. […] The DMSO lane represents […]. • Figure 2. […] The curves were fitted considering a stoichiometry of 1:1. For correct curve comparison, intensities were normalized and depicted as (I0 - I)/I0. X. The value of r^2 is 0.998. • Figure 3. […] The residues in which sequence differences are found are shown in pink. • Figure 4. These three figures show the pharmacophore group taking the compound A3H3 as an example. Specifically, groups A1, A2, and N6 (N) refer to the heteroatoms forming the central part of acylhydrazone commonly found in all the assayed compounds, in other words, the carbonyl (A1) bound to the N of amide (N6), which is in turn bound to another imine N (A2). The terms R7 (R) and R8 (R') refer to the aromatic rings which act as substituents. Both the carbonyl-bound R and the imine N-bound R are aromatic • Figure 5. […] Evaluation of the efficacy of compound A3H3 in a model for Huntington's disease. Wild-type mice WT and transgenic mice (HD) expressing exon 1 of human huntingtin (strain R6/1) were treated orally with compound A3H3 at a dose of 25 mg/kg. The treatment started at 3 months of age and lasted for 6 weeks. As a measurement of motor coordination, stride length (A) and the stay time on Rotarod (B) were analyzed.
In order to evaluate the capacity of the compounds of the invention, A3H3, A5H2, and A3H4, for modulating interaction between human NCS-1 and Ric8as, HEK293 cells were transfected with a version of epitope V5-labeled Ric8a (Ric8a-V5) and NCS-1, performing cell incubation and then cell lysis with the product to be assayed. The amount of NCS-1-bound Ric8a-V5 was then assessed by means of the immunoprecipitation technique.
(A western blot detects proteins with antibodies after separation by electrophoresis.)

The subject of assay [1] is transgenic mice (HD) expressing exon 1 of human huntingtin (strain R6/1). The assay can be described thus: Motor coordination in a mouse model for Huntington's disease. The class given is in vivo. The following applies: oral, 25 mg/kg, start at 3 months of age, after 6 weeks, significant differences with respect to the rest of groups.
Description: as §1

For assay [2], the system named is Flies overexpressing aβ42arc (D42Gal4> aβ42arc) in their motor neurons. Nature of the assay: Locomotor activity in a Drosophila melanogaster model for Alzheimer's disease (Drosophila activity monitors). It counts as in vivo. The following applies: D42Gal4> aβ42arc flies fed 100 µM; total number of beam breaks per hour, two consecutive days; vs DMSO. As for the experimental part:
As mentioned, overexpression of the human aβ42arc peptide in the motor neurons of Drosophila melanogaster causes synapse loss and this correlates with a severe locomotor dysfunction. Flies overexpressing aβ42arc (D42Gal4> aβ42arc) in their motor neurons or overexpressing the control (D42Gal4> LacZ) were fed with compound A3H3 at a concentration of 100 µM or with DMSO using the same concentration. Fly locomotor activity was recorded in Drosophila activity monitors (DAM2, Trikinetics) and the total number of beam breaks per hour was analyzed for two consecutive days.

In assay [3] the test system is flies overexpressing human aβ42arc (D42Gal4> aβ42arc). The assay can be described thus: Number of synapses in a Drosophila melanogaster model for Alzheimer's disease. The class given is in vivo. The following applies: flies fed with 100 µM throughout the entire life cycle; adult abdominal motor neurons of 20 days; nc82-positive points, confocal images; vs DMSO. As for the experimental part: It has been described above that the expression of the human aβ42arc peptide (Arctic mutation) in motor neurons leads to a reduction in the number of synapses with respect to normal neuromuscular junctions in individuals of the same age, therefore, flies overexpressing human aβ42arc (D42Gal4> aβ42arc) were fed with 100 µM compound A3H3 or with the same amount of solvent, DMSO, throughout the entire life cycle. Adult abdominal motor neurons of 20 days were analyzed and the number of synapses (nc82-positive points) was determined in different flies using confocal images.

Setting [4] is: apparent dissociation constant, 5°C, 50 mM Tris buffer pH 7.9, 125 mM NaCl, 0.5 mM CaCl2, 5% DMSO, excitation 295 nm, emission 345 nm, three repetitions, read-out: Kd.

`O=C(NN=Cc1ccc2ccccc2c1[N+](=O)[O-])C(O)c1ccccc1` (stereo not drawn) [A4H6]: the “affinity in the fluorescence technique” value at dNCS-1 is given as “without yielding any positive results”.

For the compound `O=C(Cc1c[nH]c2ccccc12)NN=Cc1ccc2ccccc2c1[N+](=O)[O-]` [A4H3], the “affinity in the fluorescence technique” value at dNCS-1 is reported as “without yielding any positive results”.

In the case of `O=C(NN=Cc1ccc([N+](=O)[O-])c(O)c1)c1cc2ccccc2cc1O` (mixture of isomers) [A3H19, (E/Z)-3-hydroxy-N'-(3-hydroxy-4-nitrobenzylidene)-2-naphthohydrazide], the NCS-1/Ric8a interaction result on NCS-1/Ric8a interaction was “promoted NCS-1/Ric8a interaction”.

For the compound `CC(C)(C)c1ccc(C(=O)N/N=C/c2ccc([N+](=O)[O-])c(O)c2)cc1` [A3H17, (E)-4-(tert-butyl)-N'-(3-hydroxy-4-nitrobenzylidene)benzohydrazide], the NCS-1/Ric8a interaction entry on NCS-1/Ric8a interaction is “promoted NCS-1/Ric8a interaction”.

For the compound `O=C(Cc1c[nH]c2ccccc12)NN=Cc1ccc([N+](=O)[O-])c(O)c1` (mixture of isomers) [A3H3, (E/Z)-N'-(3-hydroxy-4-nitrobenzylidene)-2-(1H-indol-3-yl)acetohydrazide], in assay [1], the “stay time on Rotarod” value was “the same cannot be said” and the stride length result is on record as “the same cannot be said”. Moreover, the “increase of the binding of NCS-1 with Ric8a” value at NCS-1/Ric8a interaction (HEK293 cells transfected with Ric8a-V5 and NCS-1, amount of NCS-1-bound Ric8a-V5 by immunoprecipitation) is on record as “more than two fold”. Moreover, at NCS-1/Ric8a interaction, the NCS-1/Ric8a interaction result is listed as “allows interaction with Ric8-a; also recorded: promoted NCS-1/Ric8a interaction” and the modulatory activity result is listed as “exhibited modulatory activity”. Also, the Kd at dNCS-1 (setting [4]) is 43 ± 6 µM. Besides, the “locomotor impairment due to overexpression of aβ42arc” value in assay [2] is on record as “thoroughly improved”. The “pathological reduction of the synapse count” value in assay [3] was “greatly suppressed”.

Take `COCCC(=O)N/N=C/c1ccc([N+](=O)[O-])c(O)c1` [A3H4, (E)-N'-(3-hydroxy-4-nitrobenzylidene)-3-methoxypropanehydrazide]: the NCS-1/Ric8a interaction entry on NCS-1/Ric8a interaction is given as “allows interaction with Ric8-a”.

For the compound `O=C(NN=Cc1ccc([N+](=O)[O-])c(O)c1)C(O)c1ccccc1` (racemic) [A3H6, (±)-(E/Z)-2-hydroxy-N'-(3-hydroxy-4-nitrobenzylidene)-2-phenylacetohydrazide], at NCS-1/Ric8a interaction, the NCS-1/Ric8a interaction entry is on record as “promoted NCS-1/Ric8a interaction”.

For `O=C(N/N=C/c1cc(F)ccc1[N+](=O)[O-])c1ccco1` [A7H2, (E)-N'-(5-fluoro-2-nitrobenzylidene)furan-2-carbohydrazide], the modulatory activity result on NCS-1/Ric8a interaction is reported as “exhibited modulatory activity”. The Kd on dNCS-1 (setting [4]) came out at 25 ± 4 µM.

`O=C(N/N=C/c1ccc([N+](=O)[O-])c(O)c1)c1ccco1` [A3H2, (E)-N'-(3-hydroxy-4-nitrobenzylidene)furan-2-carbahydrazide]: the Kd at dNCS-1 (setting [4]) amounted to 32 ± 2 µM.

Take `O=C(N/N=C\c1ccc([N+](=O)[O-])c(O)c1)c1ccc(Cl)s1` [A3H18, (Z)-5-chloro-N'-(3-hydroxy-4-nitrobenzylidene)thiophene-2-carbohydrazide]: the NCS-1/Ric8a interaction result on NCS-1/Ric8a interaction was “promoted NCS-1/Ric8a interaction”.

Consider `O=C(N/N=C\c1ccc(Cl)c([N+](=O)[O-])c1)c1ccco1` [A5H2, (Z)-N'-(4-chloro-3-nitrobenzylidene)furan-2-carbohydrazide], for which the NCS-1/Ric8a interaction result on NCS-1/Ric8a interaction is on record as “allows interaction with Ric8-a; also recorded: promoted NCS-1/Ric8a interaction”. For the same compound, the Kd on dNCS-1 (setting [4]) turned out to be 3.2 ± 0.3 µM.

As to `O=C(NN=Cc1ccc2ccccc2c1[N+](=O)[O-])c1cccs1` [A4H8], the “affinity in the fluorescence technique” value on dNCS-1 is on record as “without yielding any positive results”.

Take `O=C(NN=Cc1ccc(Cl)c([N+](=O)[O-])c1)C(O)c1ccccc1` (stereo not drawn) [A5H6]: at NCS-1/Ric8a interaction, the modulatory activity result was “exhibited modulatory activity”. The Kd on dNCS-1 (setting [4]) came to 3.2 ± 0.3 µM.

In the case of `O=C(NN=Cc1cc(F)ccc1[N+](=O)[O-])c1cccs1` (mixture of isomers) [A7H8, (E/Z)-N'-(5-fluoro-2-nitrobenzylidene)thiophene-2-carbohydrazide], on dNCS-1 (setting [4]), the Kd came out at 4 ± 1 µM.

For the compound `O=C(N/N=C/c1cc([N+](=O)[O-])ccc1F)c1ccco1` [A8H2, (E)-N'-(2-fluoro-5-nitrobenzylidene)furan-2-carbohydrazide], the NCS-1/Ric8a interaction result on NCS-1/Ric8a interaction was “promoted NCS-1/Ric8a interaction”. Besides, the Kd on dNCS-1 (setting [4]) turned out to be 7 ± 1 µM.

As for `O=C(NN=Cc1ccc(Cl)c([N+](=O)[O-])c1)c1cccs1` (mixture of isomers) [A5H8, (E/Z)-N'-(4-chloro-3-nitrobenzylidene)thiophene-2-carbohydrazide], the Kd on dNCS-1 is 19 ± 8 µM.
